Data as given in publication PMC5218480 (PLoS ONE, 2017).

Tested on: MV-4-11 cells
Experiment: Gene expression microarray analysis (Affymetrix PrimeView) and GSEA
Assay type: cell-based, human
Set-up: RFU PODN (11730768_x_at) / Fold change /veh PODN (11730768_x_at) / RFU LINC00158 (11744669_a_at) / Fold change /veh LINC00158 (11744669_a_at) / RFU DUSP10 (11751237_a_at) / Fold change /veh DUSP10 (11751237_a_at) / RFU ID3 (11757404_x_at) / Fold change /veh ID3 (11757404_x_at) / RFU PLEKHG5 (11737974_s_at) / Fold change /veh PLEKHG5 (11737974_s_at) / RFU LRRC4B (11730491_at) / Fold change /veh LRRC4B (11730491_at) / RFU GIMAP4 (11747438_a_at) / Fold change /veh GIMAP4 (11747438_a_at) / RFU KRT8 (11758183_x_at) / Fold change /veh KRT8 (11758183_x_at) / RFU CNN1 (11734310_a_at) / Fold change /veh CNN1 (11734310_a_at) / RFU VPS37D (11726825_at) / Fold change /veh VPS37D (11726825_at) / RFU C10orf10 (11716522_x_at) / Fold change /veh C10orf10 (11716522_x_at) / RFU KIR2DL2 /// KIR2DL4 /// KIR2DL5A /// KIR2DL5B /// KIR2DS1 /// KIR2DS2 /// KIR2DS3 /// KIR2DS4 /// KIR3DL3 /// KIR3DL3 /// KIR3DS1 (11738374_at) / Fold change /veh KIR2DL2 /// KIR2DL4 /// KIR2DL5A /// KIR2DL5B /// KIR2DS1 /// KIR2DS2 /// KIR2DS3 /// KIR2DS4 /// KIR3DL3 /// KIR3DL3 /// KIR3DS1 (11738374_at) / RFU C1QL1 (11718748_at) / Fold change /veh C1QL1 (11718748_at) / RFU TMPRSS4 (11747572_a_at) / Fold change /veh TMPRSS4 (11747572_a_at) / RFU HAMP (11756126_x_at) / Fold change /veh HAMP (11756126_x_at) / RFU RNFT2 (11725882_a_at) / Fold change /veh RNFT2 (11725882_a_at) / RFU NR4A2 (11747474_a_at) / Fold change /veh NR4A2 (11747474_a_at) / RFU ABCC12 (11746883_a_at) / Fold change /veh ABCC12 (11746883_a_at) / RFU TMEM136 (11760407_x_at) / Fold change /veh TMEM136 (11760407_x_at) / RFU CLDN22 /// WWC2 (11732394_at) / Fold change /veh CLDN22 /// WWC2 (11732394_at) / RFU HLA-DPB1 (11760878_x_at) / Fold change /veh HLA-DPB1 (11760878_x_at) / RFU SPINT1 (11716480_a_at) / Fold change /veh SPINT1 (11716480_a_at) / RFU GAP43 (11754022_s_at) / Fold change /veh GAP43 (11754022_s_at) / RFU A4GNT (11735810_at) / Fold change /veh A4GNT (11735810_at) / RFU PRB3 (11715151_x_at) / Fold change /veh PRB3 (11715151_x_at) / RFU TUBB4B (11761932_at) / Fold change /veh TUBB4B (11761932_at) / RFU CAPN14 (11732068_a_at) / Fold change /veh CAPN14 (11732068_a_at) / RFU TMCC2 (11721928_a_at) / Fold change /veh TMCC2 (11721928_a_at) / RFU IRGQ (11745062_a_at) / Fold change /veh IRGQ (11745062_a_at) / RFU FAM174B (11720279_a_at) / Fold change /veh FAM174B (11720279_a_at) / RFU TMPRSS4 (11748680_a_at) / Fold change /veh TMPRSS4 (11748680_a_at) / RFU FAM212B (11763350_a_at) / Fold change /veh FAM212B (11763350_a_at) / RFU PLEKHG5 (11743358_a_at) / Fold change /veh PLEKHG5 (11743358_a_at) / RFU ZSCAN30 (11745921_a_at) / Fold change /veh ZSCAN30 (11745921_a_at) / RFU CMKLR1 (11741424_a_at) / Fold change /veh CMKLR1 (11741424_a_at) / RFU LOC101060620 /// MAPK8IP1 (11723275_at) / Fold change /veh LOC101060620 /// MAPK8IP1 (11723275_at) / RFU SPTSSB (11747773_x_at) / Fold change /veh SPTSSB (11747773_x_at) / RFU PRSS12 (11739890_at) / Fold change /veh PRSS12 (11739890_at) / RFU BIN1 (11741810_x_at) / Fold change /veh BIN1 (11741810_x_at) / RFU WNT11 (11732464_a_at) / Fold change /veh WNT11 (11732464_a_at) / RFU C10orf10 (11716521_a_at) / Fold change /veh C10orf10 (11716521_a_at) / RFU C5orf56 (11738089_at) / Fold change /veh C5orf56 (11738089_at) / RFU CYB561 (11721691_x_at) / Fold change /veh CYB561 (11721691_x_at) / RFU ANKRD19P (11752326_a_at) / Fold change /veh ANKRD19P (11752326_a_at) / RFU OR2T12 /// OR2T33 /// OR2T8 (11738714_s_at) / Fold change /veh OR2T12 /// OR2T33 /// OR2T8 (11738714_s_at) / RFU VCAN (11748164_a_at) / Fold change /veh VCAN (11748164_a_at) / RFU JSRP1 (11732532_at) / Fold change /veh JSRP1 (11732532_at) / RFU KRTAP10-11 (11738290_x_at) / Fold change /veh KRTAP10-11 (11738290_x_at) / RFU MYO3A (11730013_a_at) / Fold change /veh MYO3A (11730013_a_at) / RFU EBF3 (11725865_a_at) / Fold change /veh EBF3 (11725865_a_at) / RFU CAMK2N1 (11719241_x_at) / Fold change /veh CAMK2N1 (11719241_x_at) / RFU C5orf56 (11738088_a_at) / Fold change /veh C5orf56 (11738088_a_at) / RFU OLFML3 (11715873_a_at) / Fold change /veh OLFML3 (11715873_a_at) / RFU LOC100653217 /// NTM (11731650_a_at) / Fold change /veh LOC100653217 /// NTM (11731650_a_at) / RFU MAPK11 (11762145_a_at) / Fold change /veh MAPK11 (11762145_a_at) / RFU FIZ1 (11724087_x_at) / Fold change /veh FIZ1 (11724087_x_at) / RFU OASL (11726364_x_at) / Fold change /veh OASL (11726364_x_at) / RFU SOX15 (11748057_x_at) / Fold change /veh SOX15 (11748057_x_at) / RFU CD79A (11719716_a_at) / Fold change /veh CD79A (11719716_a_at) / RFU HIST1H1D (11736915_at) / Fold change /veh HIST1H1D (11736915_at) / RFU CASKIN2 (11723855_a_at) / Fold change /veh CASKIN2 (11723855_a_at) / RFU LOC730098 (11760151_x_at) / Fold change /veh LOC730098 (11760151_x_at) / RFU OR4N2 (11742367_at) / Fold change /veh OR4N2 (11742367_at) / RFU PRRT2 (11749266_a_at) / Fold change /veh PRRT2 (11749266_a_at) / RFU SNX32 (11753110_a_at) / Fold change /veh SNX32 (11753110_a_at) / RFU CDHR5 (11726645_a_at) / Fold change /veh CDHR5 (11726645_a_at) / RFU RCAN1 (11760418_a_at) / Fold change /veh RCAN1 (11760418_a_at) / RFU FAM167A (11723789_a_at) / Fold change /veh FAM167A (11723789_a_at) / RFU FAM26E (11764081_at) / Fold change /veh FAM26E (11764081_at) / RFU ISYNA1 (11749810_s_at) / Fold change /veh ISYNA1 (11749810_s_at) / RFU ACY1 (11761880_at) / Fold change /veh ACY1 (11761880_at) / RFU 11764098_at / Fold change /veh 11764098_at / RFU SAMD14 (11745864_x_at) / Fold change /veh SAMD14 (11745864_x_at) / RFU NPB (11741838_a_at) / Fold change /veh NPB (11741838_a_at) / RFU TMPRSS6 (11731388_a_at) / Fold change /veh TMPRSS6 (11731388_a_at) / RFU KRTAP10-2 (11738614_at) / Fold change /veh KRTAP10-2 (11738614_at) / RFU ARHGAP8 /// PRR5-ARHGAP8 (11727945_x_at) / Fold change /veh ARHGAP8 /// PRR5-ARHGAP8 (11727945_x_at) / RFU KRTAP5-7 /// NADSYN1 (11734609_at) / Fold change /veh KRTAP5-7 /// NADSYN1 (11734609_at) / RFU RASL12 (11751679_a_at) / Fold change /veh RASL12 (11751679_a_at) / RFU CDKN2B (11736163_a_at) / Fold change /veh CDKN2B (11736163_a_at) / RFU PRF1 (11729649_at) / Fold change /veh PRF1 (11729649_at) / RFU, ZNF638 /// ZNF638-IT1 / Fold change vs veh, ZNF638 /// ZNF638-IT1 / RFU, PANK3 / Fold change vs veh, PANK3 / RFU, SH3YL1 / Fold change vs veh, SH3YL1 / RFU, ZEB2 / Fold change vs veh, ZEB2 / RFU, NRIP1 / Fold change vs veh, NRIP1 / RFU, PTTG1IP / Fold change vs veh, PTTG1IP / RFU, CAPN2 / Fold change vs veh, CAPN2 / RFU, MED14 / Fold change vs veh, MED14 / RFU, SNORA58 / Fold change vs veh, SNORA58 / RFU, C1orf63 / Fold change vs veh, C1orf63 / RFU, LRRFIP1 / Fold change vs veh, LRRFIP1 / RFU, NDUFAF7 / Fold change vs veh, NDUFAF7 / RFU, SLC12A2 / Fold change vs veh, SLC12A2 / RFU, IBTK / Fold change vs veh, IBTK / RFU, ESF1 / Fold change vs veh, ESF1 / Fold change vs veh, TMEM50B / RFU, TAOK1 / Fold change vs veh, TAOK1 / RFU, ACBD3 / Fold change vs veh, ACBD3 / RFU, TMA16 / Fold change vs veh, TMA16 / RFU, RWDD3 / Fold change vs veh, RWDD3 / RFU, BCAT1 / Fold change vs veh, BCAT1 / RFU, EDEM3 / Fold change vs veh, EDEM3 / RFU, TMEM33 / Fold change vs veh, TMEM33 / RFU, WDR75 / Fold change vs veh, WDR75 / RFU, AHCTF1 / Fold change vs veh, AHCTF1 / RFU, TFRC / Fold change vs veh, TFRC / RFU, ZDHHC17 / Fold change vs veh, ZDHHC17 / RFU, NOM1 / Fold change vs veh, NOM1 / RFU, ARL8B / Fold change vs veh, ARL8B / RFU, ZBTB11 / Fold change vs veh, ZBTB11 / RFU, TAMM41 / Fold change vs veh, TAMM41 / RFU, KIAA1704 /// LOC100996395 / Fold change vs veh, KIAA1704 /// LOC100996395 / RFU, ING1 / Fold change vs veh, ING1 / RFU, TRMT61B / Fold change vs veh, TRMT61B / RFU, FUBP3 / Fold change vs veh, FUBP3 / RFU, TP53 / Fold change vs veh, TP53 / RFU, TNKS2 / Fold change vs veh, TNKS2 / RFU, ZFP14 / Fold change vs veh, ZFP14 / RFU, ACTR2 / Fold change vs veh, ACTR2 / RFU, PPP3R1 / Fold change vs veh, PPP3R1 / RFU, PIK3R1 / Fold change vs veh, PIK3R1 / RFU, HNRNPA1 / Fold change vs veh, HNRNPA1 / RFU, RNF170 / Fold change vs veh, RNF170 / RFU, ZNF28 / Fold change vs veh, ZNF28 / RFU, RNGTT / Fold change vs veh, RNGTT / RFU, OGT / Fold change vs veh, OGT / RFU, BRD1 / Fold change vs veh, BRD1 / RFU, MARS / Fold change vs veh, MARS / RFU, ZNF655 / Fold change vs veh, ZNF655 / RFU, FAHD1 / Fold change vs veh, FAHD1 / RFU, BDP1 / Fold change vs veh, BDP1 / RFU, LRRCC1 / Fold change vs veh, LRRCC1 / RFU, ARID1A / Fold change vs veh, ARID1A / RFU, ZNF146 / Fold change vs veh, ZNF146 / RFU, ZNF330 / Fold change vs veh, ZNF330 / RFU, GPN3 / Fold change vs veh, GPN3 / RFU, C9orf123 / Fold change vs veh, C9orf123 / RFU, N4BP2L2 / Fold change vs veh, N4BP2L2 / RFU, ARFIP1 / Fold change vs veh, ARFIP1 / RFU, FAM179B / Fold change vs veh, FAM179B / RFU, BCL10 / Fold change vs veh, BCL10 / RFU, UHRF1BP1L / Fold change vs veh, UHRF1BP1L / RFU, BET1 / Fold change vs veh, BET1 / RFU, CNOT2 / Fold change vs veh, CNOT2 / RFU, ZNF268 / Fold change vs veh, ZNF268 / Fold change vs veh, ZNF507 / RFU, DGCR2 / Fold change vs veh, DGCR2 / RFU, WDSUB1 / Fold change vs veh, WDSUB1 / Fold change vs veh, HSP90B1 /// MIR3652 / RFU, ADSS / Fold change vs veh, ADSS / RFU, GK / Fold change vs veh, GK / RFU, ZNF148 / Fold change vs veh, ZNF148 / RFU, TAF9 / Fold change vs veh, TAF9 / RFU, SLC1A5 / Fold change vs veh, SLC1A5 / RFU, SLMO2 / Fold change vs veh, SLMO2 / RFU, ABCC4 / Fold change vs veh, ABCC4 / RFU, LOC101060439 /// RAP1B / Fold change vs veh, LOC101060439 /// RAP1B / RFU, RFX7 / Fold change vs veh, RFX7 / RFU, GTPBP10 / Fold change vs veh, GTPBP10 / RFU, CNEP1R1 / Fold change vs veh, CNEP1R1 / RFU, BIVM-ERCC5 /// ERCC5 / Fold change vs veh, BIVM-ERCC5 /// ERCC5 / RFU, ILF3 / Fold change vs veh, ILF3 / RFU 11762660_at / Fold change /veh 11762660_at / RFU VCAN (11757783_s_at) / Fold change /veh VCAN (11757783_s_at) / RFU DDX43 (11728927_at) / Fold change /veh DDX43 (11728927_at) / RFU KRT8 (11758188_x_at) / Fold change /veh KRT8 (11758188_x_at) / RFU NKD1 (11759106_at) / Fold change /veh NKD1 (11759106_at) / RFU SRD5A1 (11742802_a_at) / Fold change /veh SRD5A1 (11742802_a_at) / RFU TPSAB1 /// TPSB2 (11721975_s_at) / Fold change /veh TPSAB1 /// TPSB2 (11721975_s_at) / RFU GSTM3 (11746129_a_at) / Fold change /veh GSTM3 (11746129_a_at) / RFU IL23R (11737362_x_at) / Fold change /veh IL23R (11737362_x_at) / RFU TMEM51 (11727254_a_at) / Fold change /veh TMEM51 (11727254_a_at) / RFU PIWIL2 (11732686_x_at) / Fold change /veh PIWIL2 (11732686_x_at) / RFU ORM1 (11744905_x_at) / Fold change /veh ORM1 (11744905_x_at) / RFU CCDC152 (11743942_at) / Fold change /veh CCDC152 (11743942_at) / RFU ECM1 (11717891_a_at) / Fold change /veh ECM1 (11717891_a_at) / RFU IL23R (11748794_a_at) / Fold change /veh IL23R (11748794_a_at) / RFU TNFAIP8L3 (11732012_x_at) / Fold change /veh TNFAIP8L3 (11732012_x_at) / RFU MBOAT4 (11741988_at) / Fold change /veh MBOAT4 (11741988_at) / RFU 11764193_at / Fold change /veh 11764193_at / RFU TMEM53 (11763286_at) / Fold change /veh TMEM53 (11763286_at) / RFU MAGEB2 (11727129_at) / Fold change /veh MAGEB2 (11727129_at) / RFU TMEM200A (11744735_a_at) / Fold change /veh TMEM200A (11744735_a_at) / RFU CCDC152 (11751479_a_at) / Fold change /veh CCDC152 (11751479_a_at) / RFU FAM211A (11726209_a_at) / Fold change /veh FAM211A (11726209_a_at) / RFU RGS16 (11746705_a_at) / Fold change /veh RGS16 (11746705_a_at) / RFU VCAN (11755009_s_at) / Fold change /veh VCAN (11755009_s_at) / RFU RHOB (11743442_s_at) / Fold change /veh RHOB (11743442_s_at) / RFU RGS16 (11720943_a_at) / Fold change /veh RGS16 (11720943_a_at) / RFU RGS16 (11720944_at) / Fold change /veh RGS16 (11720944_at) / RFU, VPS4B / Fold change vs veh, VPS4B / RFU, CREB1 / Fold change vs veh, CREB1 / RFU, DNAJC13 / Fold change vs veh, DNAJC13 / RFU, GNAQ / Fold change vs veh, GNAQ / RFU, CDK5R1 / Fold change vs veh, CDK5R1 / RFU, ZRANB3 / Fold change vs veh, ZRANB3 / RFU, CUL4A / Fold change vs veh, CUL4A / RFU, CCNY / Fold change vs veh, CCNY / RFU, UFL1 / Fold change vs veh, UFL1 / RFU, COG3 / Fold change vs veh, COG3 / RFU, DIAPH2 / Fold change vs veh, DIAPH2 / RFU, SKA2 / Fold change vs veh, SKA2 / RFU, AFF3 / Fold change vs veh, AFF3 / RFU, LMF1 / Fold change vs veh, LMF1 / RFU, IPO11 / Fold change vs veh, IPO11 / RFU, DFFB / Fold change vs veh, DFFB / RFU, FOXP1 / Fold change vs veh, FOXP1 / RFU, CARD8 / Fold change vs veh, CARD8 / RFU, STRN3 / Fold change vs veh, STRN3 / RFU, ADK / Fold change vs veh, ADK / RFU, RASSF2 / Fold change vs veh, RASSF2 / RFU, WIPF1 / Fold change vs veh, WIPF1 / RFU, LARP1B / Fold change vs veh, LARP1B / RFU, RASA1 / Fold change vs veh, RASA1 / RFU, RB1 / Fold change vs veh, RB1 / RFU, PPFIA1 / Fold change vs veh, PPFIA1 / RFU, MAT2A / Fold change vs veh, MAT2A / RFU, CCT5 / Fold change vs veh, CCT5 / RFU, WDR92 / Fold change vs veh, WDR92 / RFU, CUX1 / Fold change vs veh, CUX1 / RFU, TTC7A / Fold change vs veh, TTC7A / RFU, TMEM135 / Fold change vs veh, TMEM135 / RFU, DEPTOR / Fold change vs veh, DEPTOR / RFU, CPM / Fold change vs veh, CPM / RFU, DNAJB6 / Fold change vs veh, DNAJB6 / RFU, CACNA2D3 / Fold change vs veh, CACNA2D3 / RFU, DTX4 / Fold change vs veh, DTX4 / RFU, TFCP2 / Fold change vs veh, TFCP2 / RFU, GMCL1 /// GMCL1P1 / Fold change vs veh, GMCL1 /// GMCL1P1 / RFU, AEBP2 / Fold change vs veh, AEBP2 / RFU, SNHG1 /// SNORD22 /// SNORD25 /// SNORD26 /// SNORD27 /// SNORD28 /// SNORD29 /// SNORD31 / Fold change vs veh, SNHG1 /// SNORD22 /// SNORD25 /// SNORD26 /// SNORD27 /// SNORD28 /// SNORD29 /// SNORD31 / Fold change (Aza/veh), C12orf56 (ProbeSet 11735607_a_at) / Fold change (ACY-1035/veh), C12orf56 (ProbeSet 11735607_a_at) / Fold change (Aza/veh), FGFR1OP (ProbeSet 11751329_s_at) / Fold change (ACY-1035/veh), FGFR1OP (ProbeSet 11751329_s_at) / Fold change (Aza/veh), VPS36 (ProbeSet 11739960_a_at) / Fold change (ACY-1035/veh), VPS36 (ProbeSet 11739960_a_at) / RFU SYPL1 (11715823_x_at) / Fold change /veh SYPL1 (11715823_x_at) / RFU IGFBP7 (11715501_s_at) / Fold change /veh IGFBP7 (11715501_s_at) / RFU REEP3 (11722064_at) / Fold change /veh REEP3 (11722064_at) / RFU IGLL1 (11728026_x_at) / Fold change /veh IGLL1 (11728026_x_at): dose or concentration left out as unconfirmed
Conditions: MV-4-11 cells, 48 hours

## Nc1ccc(-c2cccs2)cc1NC(=O)c1ccc2c(c1)cc(C1CC1)n2CCN1CCOCC1 [ACY-1035]
  RFU DDX43 (11728927_at): 10.07 RFU
